# Laboratory results reported in PMC5725799, “Comparative binding properties of the tau PET tracers THK5117, THK5351, PBB3, and T807 in postmortem Alzheimer brains” (Alzheimer's Research & Therapy, 2017).
# Where “and” joins values, the source holds several entries; their conditions need not be identical. Identical values can stand only once.
# Assays:
# MAO-B = system: MAO-B; set-up: method as in PMID 28374768; settings: cited from earlier work
# [1] = target: T1, monoamine oxidase B (MAO-B) (Homo sapiens, UniProt P27338); test: Competition binding with ^3H-deprenyl in hippocampus and putamen brain homogenates (off-target binding); settings: vs ^3H-deprenyl 10 nM, two AD cases
# T1 construct: postmortem brain homogenates from the hippocampus and putamen (0.2 mg/ml tissue) of two patients with AD; tissue Netherlands Brain Bank; host or cells: postmortem human AD hippocampus and putamen homogenate
# T1 sequence (P27338 1-520): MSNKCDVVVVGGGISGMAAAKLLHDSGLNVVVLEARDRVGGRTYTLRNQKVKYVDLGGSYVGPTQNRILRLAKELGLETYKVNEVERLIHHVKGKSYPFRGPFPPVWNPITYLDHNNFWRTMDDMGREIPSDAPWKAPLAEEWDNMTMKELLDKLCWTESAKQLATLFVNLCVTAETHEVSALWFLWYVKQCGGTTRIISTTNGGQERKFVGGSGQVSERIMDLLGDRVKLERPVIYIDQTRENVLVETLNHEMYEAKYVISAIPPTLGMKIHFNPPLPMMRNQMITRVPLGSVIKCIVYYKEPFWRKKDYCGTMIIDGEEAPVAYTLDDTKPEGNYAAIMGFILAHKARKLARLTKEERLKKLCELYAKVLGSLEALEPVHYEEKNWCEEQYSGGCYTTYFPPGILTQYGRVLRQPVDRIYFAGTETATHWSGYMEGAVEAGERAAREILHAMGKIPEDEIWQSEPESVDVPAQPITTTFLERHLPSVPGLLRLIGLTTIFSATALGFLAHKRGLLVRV
# Procedure: Competition binding studies using postmortem brain homogenates from the hippocampus and putamen (0.2 mg/ml tissue) of two patients with AD were performed using ^3H-deprenyl (10 nM in Na-K phosphate buffer, pH 7.4) and increasing concentrations of unlabeled THK5117 (10^−14 to 10^−5 M) and T807 (10^−14 to 10^−5 M) to determine the off-target binding of the tau PET tracers. After 2-h incubation at room temperature, the binding assay was terminated by filtration through glass fiber filters presoaked for at least 3 h in 0.3% polyethylenimine. To do so, the filters were rinsed and filtered three times using cold binding buffer, and then the radiation on the filter was quantified using a Beckman Coulter scintillation counter. The data from all the binding studies were analyzed using Prism version 7.0 software.
# tau [2] = target: tau (Homo sapiens, UniProt P10636); test: Competition binding assay with ^3H-THK5351 in postmortem hippocampus brain homogenates; settings: vs ^3H-THK5351 1.5 nM, AD hippocampus homogenate; read-out: Ki2 (high-affinity site)
# Sequence of tau (Homo sapiens, UniProt P10636) (P10636 623-695 limits assumed): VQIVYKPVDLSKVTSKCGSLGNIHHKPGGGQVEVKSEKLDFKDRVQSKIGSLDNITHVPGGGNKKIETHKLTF
# Procedure: (§1) Postmortem brain tissues from three patients with AD and three healthy control subjects were used for the in vitro binding assays. All the brain tissue, which came from the Netherlands Brain Bank, had been homogenized in PBS containing a protease/phosphatase inhibitor (see Table 1).
# After 2-h incubation at room temperature, the binding assay was terminated by filtration through glass fiber filters presoaked for at least 3 h in 0.3% polyethylenimine. To do so, the filters were rinsed and filtered three times using cold binding buffer, and then the radiation on the filter was quantified using a Beckman Coulter scintillation counter. The data for the regional binding distribution studies were analyzed using Prism version 7.0 software for Mac (GraphPad Software Inc., La Jolla, CA, USA), and two-way analysis of variance with multiple comparisons was performed.
# tau [3] = test: ^3H-THK5351 competition autoradiography with unlabeled THK5351, T807 and deprenyl; assay type: binding, human; settings: cortical areas
# Procedure: Six adjacent sections from AD1 (see Table 1) were used for competition autoradiography of unlabeled THK5351, T807, and deprenyl. After reaching room temperature, the frozen sections were preincubated for 10 minutes with PBS (pH 7.4) and then incubated for 1 h at room temperature with ^3H-THK5351 (1.5 nM) in addition to 10 μM unlabeled THK5351; 10 μM unlabeled deprenyl; 10 μM unlabeled T807; 10 μM unlabeled THK5351 and 10 μM unlabeled deprenyl; 10 μM unlabeled T807 and 10 μM unlabeled deprenyl. The sections were rinsed three times in cold buffer for 5 minutes, followed by a quick dip in cold distilled water. Nonspecific binding was determined using 10 μM unlabeled THK5351 or 10 μM unlabeled THK5117. […]
# (§2) For all the autoradiography studies, the regions of interest were drawn manually on the autoradiogram using multigauge software and were used for the semiquantitative analyses. Photostimulated luminescence per square millimeter (PSL/mm^2) was transformed to picomoles per cubic millimeter using a transformation factor that took into account the resolution of the image, the pixel value for the concentration of ligand, and the thickness of the sections: (PSL/mm^2 value)/([pixel value per pmol] × [(resolution/1000)^2] × [cryosection thickness]/1000).
# tau [4] = test: ^3H-THK5117 and ^3H-THK5351 autoradiography of large frozen postmortem brain sections, total binding; set-up: species or system human; settings: 3 nM tracer
# Procedure: Postmortem frozen left brain hemispheres from three patients with AD were obtained from the Neuropathology of Dementia Laboratory (Indiana University School of Medicine, Indianapolis, IN, USA) and used for the autoradiography experiment. The frozen sections were allowed to reach room temperature, preincubated for 10 minutes with PBS + 0.1% BSA (pH 7.4), and then incubated for 1 h at room temperature with ^3H-THK5351 (3 nM) or ^3H-THK5117 (3 nM). The sections were rinsed three times in cold buffer for 5 minutes, followed by a quick dip in cold distilled water. Nonspecific binding was determined using 10 μM unlabeled THK5351 or 10 μM unlabeled THK5117. […]
# as §2
# tau [5] = test: Regional binding distribution of ^3H-THK5117 and ^3H-THK5351 in brain homogenate; set-up: species or system human; settings: temporal cortex homogenate, ^3H-THK5117 3 nM vs ^3H-THK5351 1.5 nM, p < 0.0001
# Procedure: as §1
# The regional binding distribution comparison between ^3H-THK5351 and ^3H-THK5117 was carried out in postmortem frontal and temporal cortical and hippocampal tissue from the brains of three patients with AD and three control subjects. The protocol was similar for ^3H-THK5351 (1.5 nM) and ^3H-THK5117 (3 nM): 0.1 mg of tissue in PBS + 0.1% bovine serum albumin (BSA) to a final volume of 500 μl, followed by incubation for 2 h at room temperature. The nonspecific binding was determined using 1 μM unlabeled THK5351 or unlabeled THK5117. After 2-h incubation at room temperature, the competition binding assay was stopped using filtration through glass fiber filters, and the radiation was then quantified using the scintillation counter.
# tau [6] = test: ^18F-T807 autoradiography and competition on large frozen AD brain sections; assay type: binding, human; set-up: Total Binding / NSP Binding: unit not given here; settings: vs Unlabelled T807
# Procedure: Adjacent sections were used for autoradiography with ^11C-THK5351, ^11C-PBB3, and ^18F-T807. The frozen sections were allowed to reach room temperature, incubated for 30 minutes at room temperature with ^11C-THK5351 (0.4–0.56 nM; specific activity 356–532 GBq/μmol) or ^11C-PBB3 (0.25–0.34 nM; specific activity 442–794 GBq/μmol) or for 55 minutes at room temperature with ^18F-T807 (0.04 nM; specific activity 281 GBq/μmol). We used 10 μM unlabeled THK5351, 10 μM unlabeled PBB3, and 10 μM unlabeled T807 to determine the extent of nonspecific binding for each tracer. The sections were rinsed three times for 5 minutes each with cold binding buffer, followed by a quick dip in cold distilled water. The sections were dried and exposed for 1 h (for ^11C-THK5351 and ^11C-PBB3) or for 3 h (^18 F-T807) on a phosphor imaging plate and then read using the BAS-2500 phosphor imager.
# as §2
structure (smiles),measurement,setting,value
CNc1ccc(-c2ccc3cc(OCC(O)CF)ccc3n2)cc1 (stereo not shown) [THK5117],affinity between MAO-B and THK5117,MAO-B,around 300 nM
same,Ki,[1]; hippocampus homogenate,286 nM and > 200 nM
same,Ki,[1]; putamen homogenate,148 nM and ~150 nM
same,Ki,tau [2],20 nM
CNc1ccc(-c2ccc3cc(OC[C@H](O)CF)ccc3n2)cn1 [THK5351],^3H-THK5351 binding displaced,tau [3],70–80%
same,Ki,tau [2],16 nM
"[3H]CNc1ccc(-c2ccc3cc(OCC(O)CF)ccc3n2)cc1 (stereo not shown) [^3H-THK5117, 1-Fluoro-3-((2-(4-([^3H]methylamino)phenyl)quinolin-6-yl)oxy)propan-2-ol]",Total Binding,"tau [4]; AD1, Frontal cortex",312 fmol/mg
same,Total Binding,"tau [4]; AD1, Temporal cortex",261 fmol/mg
same,extent of binding compared with ^3H-THK5351,tau [5],more extensive binding of ^3H-THK5117 than of ^3H-THK5351
Fc1ccc(-c2ccc3c(c2)[nH]c2ccncc23)cn1 [T807],Ki,[1]; hippocampus homogenate,227 nM and > 200 nM
same,Ki,[1]; putamen homogenate,135 nM and ~150 nM
same,^3H-THK5351 binding displaced,tau [3],70–80%
same,Ki,tau [2],78 nM
"[18F]c1ccc(-c2ccc3c(c2)[nH]c2ccncc23)cn1 [^18F-T807, 7-(6-[^18F]fluoropyridin-3yl)-5H-pyrido(4,3-b)indole]",% of specific binding,"tau [6]; AD1, Basal ganglia",24%
same,NSP Binding,"tau [6]; AD1, Basal ganglia",1895
same,Specific Binding,"tau [6]; AD1, Basal ganglia",599
same,Total Binding,"tau [6]; AD1, Basal ganglia",2495
same,% of specific binding,"tau [6]; AD1, Frontal cortex",41%
same,NSP Binding,"tau [6]; AD1, Frontal cortex",2028
same,Specific Binding,"tau [6]; AD1, Frontal cortex",1388
same,Total Binding,"tau [6]; AD1, Frontal cortex",3416
same,% of specific binding,"tau [6]; AD1, Insula",33%
same,NSP Binding,"tau [6]; AD1, Insula",1851
same,Specific Binding,"tau [6]; AD1, Insula",893
same,Total Binding,"tau [6]; AD1, Insula",2744
same,% of specific binding,"tau [6]; AD1, Temporal cortex",28%
same,NSP Binding,"tau [6]; AD1, Temporal cortex",2018
same,Specific Binding,"tau [6]; AD1, Temporal cortex",784
same,Total Binding,"tau [6]; AD1, Temporal cortex",2802
same,% of specific binding,"tau [6]; AD2, Basal ganglia",25%
same,NSP Binding,"tau [6]; AD2, Basal ganglia",1713
same,Specific Binding,"tau [6]; AD2, Basal ganglia",567
same,Total Binding,"tau [6]; AD2, Basal ganglia",2280
same,% of specific binding,"tau [6]; AD2, Frontal cortex",24%
same,NSP Binding,"tau [6]; AD2, Frontal cortex",1901
same,Specific Binding,"tau [6]; AD2, Frontal cortex",586
same,Total Binding,"tau [6]; AD2, Frontal cortex",2488
same,Total Binding,"tau [6]; AD2, Insula",2469
same,% of specific binding,"tau [6]; AD2, Temporal cortex",46%
same,NSP Binding,"tau [6]; AD2, Temporal cortex",1801
same,Specific Binding,"tau [6]; AD2, Temporal cortex",1526
same,Total Binding,"tau [6]; AD2, Temporal cortex",3327
same,% of specific binding,"tau [6]; AD3, Basal ganglia",31%
same,NSP Binding,"tau [6]; AD3, Basal ganglia",1639
same,Specific Binding,"tau [6]; AD3, Basal ganglia",733
same,Total Binding,"tau [6]; AD3, Basal ganglia",2372
same,% of specific binding,"tau [6]; AD3, Frontal cortex",40%
same,NSP Binding,"tau [6]; AD3, Frontal cortex",1916
same,Specific Binding,"tau [6]; AD3, Frontal cortex",1296
same,Total Binding,"tau [6]; AD3, Frontal cortex",3212
same,% of specific binding,"tau [6]; AD3, Insula",22%
same,NSP Binding,"tau [6]; AD3, Insula",1836
same,Specific Binding,"tau [6]; AD3, Insula",509
same,Total Binding,"tau [6]; AD3, Insula",2346
same,% of specific binding,"tau [6]; AD3, Temporal cortex",16%
same,NSP Binding,"tau [6]; AD3, Temporal cortex",1975
same,Specific Binding,"tau [6]; AD3, Temporal cortex",374
same,Total Binding,"tau [6]; AD3, Temporal cortex",2349
